Measured values as given in US10307383B2, “Cosmetic composition for preventing or ameliorating hypersensitive skin comprising cedrol or derivatives thereof, or pharmaceutically acceptable salts thereof” (University of Seoul Industry Cooperation Foundation, priority 2017, dated 2019).
Values after ≈ are worked out from the molar mass of the structure shown.

Tested on: IL-17A expression
Test: IL-17A inhibition assay in IL-17 luciferase-(LUCPorter) stable reporter cell line
Details: for Inhibition of IL-17A expression (%) Experiment-1 / Inhibition of IL-17A expression (%) Experiment-2 / Inhibition of IL-17A expression (%) Experiment-3: 6 hours; for expression of IL-17A (luciferase units): control group 2,582 units; for inhibition at 10 µg/mL / inhibition at 100 µg/mL / inhibition at 1000 µg/mL / IC50: Homo sapiens; for inhibition at 10 µg/mL / inhibition at 100 µg/mL / inhibition at 1000 µg/mL: read-out: Average Inhibition (%); for IC50: read-out: IC50 to inhibit the IL-17A expression by 50%

IC50 | Compound | expression of IL-17A, % by the control (10 μg/ml) | Inhibition of IL-17A expression (%) Experiment-1 (10 μg/ml) | Inhibition of IL-17A expression (%) Experiment-2 (10 μg/ml) | Inhibition of IL-17A expression (%) Experiment-3 (10 μg/ml) | expression of IL-17A (luciferase units) (10 μg/ml) | expression of IL-17A, % by the control (100 μg/ml) | Inhibition of IL-17A expression (%) Experiment-1 (100 μg/ml) | Inhibition of IL-17A expression (%) Experiment-2 (100 μg/ml) | Inhibition of IL-17A expression (%) Experiment-3 (100 μg/ml) | expression of IL-17A (luciferase units) (100 μg/ml) | expression of IL-17A, % by the control (1,000 μg/ml) | Inhibition of IL-17A expression (%) Experiment-1 (1000 μg/ml) | Inhibition of IL-17A expression (%) Experiment-2 (1000 μg/ml) | Inhibition of IL-17A expression (%) Experiment-3 (1000 μg/ml) | expression of IL-17A (luciferase units) (1,000 μg/ml) | inhibition at 10 µg/mL | inhibition at 100 µg/mL | inhibition at 1000 µg/mL
1130 µg/mL (≈ 4.78 mM) | CO[C@]1(C)CC[C@@]23C[C@@H]1C(C)(C)[C@@H]2CC[C@H]3C [methyl cedryl ether, Methyl cedryl ether] | 96 % by the control | −6% | 4% | 4% | 2,479±136 units | 92 % by the control | −5% | 5% | 8% | 2,379±206 units | 74 % by the control | 48% | 18% | 26% | 1,921±239 units | 0.7% | 2.7% | 30.7%
942 µg/mL (≈ 4.27 mM) | C[C@@H]1CC[C@H]2C(C)(C)[C@H]3C[C@@]12CC1OC13C (stereo partly drawn) [cedrene epoxide, Cedrene epoxide] | 100 % by the control | 11% | 4% | 0% | 2,591±458 units | 88 % by the control | 14% | 16% | 12% | 2,267±806 units | 54 % by the control | 60% | 56% | 46% | 1,382±87 units | 5% | 14% | 54%
841 µg/mL (≈ 3.41 mM) | CC(=O)C1=C(C)[C@@H]2C[C@@]3(C1)[C@H](C)CC[C@H]3C2(C)C [methyl cedryl ketone, Methyl cedryl ketone] | 87 % by the control | 0% | 1% | 13% | 2,248±194 units | 75 % by the control | 12% | 15% | 25% | 1,930±111 units | 34 % by the control | 78% | 58% | 66% | 866±106 units | 4.7% | 17.3% | 67.3%
